# From patent US20210392890A1, “COMPOSITIONS COMPRISING PYRIDINE CARBOXYLATE HERBICIDES AND PLANT GROWTH REGULATORS” (Corteva Agriscience LLC, priority 2018, published 2021)
# Where “and” joins values, the source holds several entries; their conditions need not be identical. Equal entries are not always repeated.
# Key:
# Type in all cases: in vivo
# [1] = system: Polygonum convolvulus (wild buckwheat); assay: Greenhouse postemergence herbicidal effect on POLCO
# From the text: (§1) Seeds of the desired test plant species were planted in a 90:10% v/v (volume/volume) mixture of PRO-MIX® BX (Premier Tech Horticulture, Quakertown, Pa., USA) and PROFILE® GREENS GRADE™ (Profile Products LLC, Buffalo Grove, Ill., USA) planting mixture, which typically has a pH of 5.2 to 6.2 and an organic matter content of at least 50 percent, in plastic pots with a surface area of 103.2 square centimeters (cm^2). In some aspects, to help ensure good germination and healthy plants, a fungicide treatment and/or other chemical or physical treatment was applied. The plants were grown for 7-36 days (d) in a greenhouse with an approximate 14-hour (h) photoperiod which was maintained at about 23° C. during the day and 22° C. during the night. Nutrients and water were added on a regular basis and supplemental lighting was provided with overhead metal halide 1000-Watt lamps as necessary. The plants were employed for testing when they reached the second or third true leaf stage.
# (§2) Emulsifiable concentrates of each of each pyridine carboxylate herbicide (Compound A or Compound B) were prepared at 100 grams acid equivalent per liter (g ae/L). The emulsifiable concentrates also included a safener, cloquintocet-mexyl, at 120 grams active ingredient per liter (g ai/L). An aliquot of each emulsifiable concentrate was placed in a 25 mL glass vial and diluted with an aqueous mixture of 1.25% (v/v) ACTIROB® B esterified rapeseed oil (Bayer Crop Science, Research Triangle Park, N.C., USA) or MSO® Concentrate with LECI-TECH® methylated soybean oil (Loveland Products, Loveland, Colo., USA) to obtain concentrated stock solutions at the highest application rate for each herbicide, based upon a 12 milliliter (mL) application volume at a rate of 187 liters per hectare (L/ha). The concentrated stock solutions were further diluted with an aqueous mixture of 1.25% v/v ACTIROB® B or MSO® Concentrate with LECI-TECH® to obtain stock solutions at reduced application rates for each herbicide. Spray solutions of the herbicide combinations (Compound A or Compound B plus the PGR) were prepared by adding weighed amounts or aliquots of the PGR to the stock solutions of Compound A or Compound B to form 12-mL spray solutions in two-way combinations.
# (§3) The spray solutions were applied to the plant material with an overhead Mandel track sprayer equipped with 8002E nozzles calibrated to deliver 187 L/ha over an application area of 0.503 square meters (m^2) at a spray height of 18 inches (43 centimeters (cm)) above the average plant canopy. Control plants were sprayed in the same manner with the solvent blank. All pyridine carboxylate herbicide (component a) application rates are given as “g ae/ha” and all PGR (component b) application rates are given as “g ai/ha.”
# (§4) The treated plants and control plants were placed in a greenhouse as described above and watered by sub-irrigation to prevent wash-off of the test compounds. After 20-22 d, the condition of the test plants as compared with that of the control plants was determined visually and scored on a scale of 0 to 100 percent where 0 corresponds to no injury and 100 corresponds to complete kill.
# [2] = system: Viola tricolor (wild pansy); assay: Greenhouse postemergence herbicidal effect on VIOTR
# From the text: as §1, §2, §3, §4
# [3] = system: Cirsium arvense (Canada thistle); assay: Greenhouse postemergence herbicidal effect on CIRAR
# From the text: as §1, §2, §3, §4
# [4] = system: Helianthus annuus (common sunflower); assay: Greenhouse postemergence herbicidal effect on HELAN
# From the text: as §1, §2, §3, §4
# [5] = system: Ipomoea hederacea (ivyleaf morningglory); assay: Greenhouse postemergence herbicidal effect on IPOHE
# From the text: as §1
# (§5) Emulsifiable concentrates of each of each pyridine carboxylate herbicide (Compound A or Compound B) were prepared at 100 grams acid equivalent per liter (g ae/L). The emulsifiable concentrates also included a safener, cloquintocet-mexyl, at 120 grams active ingredient per liter (g ai/L). […]
# as §4
# Glycine max (soybean) = assay: Greenhouse postemergence herbicidal effect on GLXMA
# From the text: as §1, §2, §3, §4
# Kochia scoparia (kochia) = assay: Greenhouse postemergence herbicidal effect on KCHSC
# From the text: as §1, §2, §3, §4
# [6] = system: Amaranthus retroflexus (pigweed); assay: Greenhouse postemergence herbicidal effect on AMARE
# From the text: as §1, §2, §3, §4
# [7] = system: Brassica napus (spring rape); assay: Greenhouse postemergence herbicidal effect on BRSNN
# From the text: as §1, §2, §3, §4
# [8] = system: Setaria faberi (giant foxtail); assay: Greenhouse postemergence herbicidal effect on SETFA
# From the text: as §1, §2, §3, §4
# [9] = system: Chenopodium album L. (common lambsquarters); assay: Greenhouse postemergence herbicidal effect on CHEAL
# From the text: as §1, §2, §3, §4
# [10] = system: Stellaria media (chickweed); assay: Greenhouse postemergence herbicidal effect on STEME
# From the text: as §1, §2, §3, §4
# [11] = system: Euphorbia heterophylla (poinsettia); assay: Greenhouse postemergence herbicidal effect on EPHHL
# From the text: as §1, §2, §3, §4
# [12] = system: Echinochloa crus-galli (barnyard grass); assay: Greenhouse postemergence herbicidal effect on ECHCG; conditions: Compound A 0 g/ha, Ethephon 140 g/ha
# From the text: as §1, §5
# (§6) The treated plants and control plants were placed in a greenhouse as described above and watered by sub-irrigation to prevent wash-off of the test compounds. After 20-22 d, the condition of the test plants as compared with that of the control plants was determined visually and scored on a scale of 0 to 100 percent where 0 corresponds to no injury and 100 corresponds to complete kill. […]
# [13] = system: Rumex obtusifolia (broadleaf dock); assay: Greenhouse postemergence herbicidal effect on RUMOB; conditions: Compound A 0 g/ha, Ethephon 140 g/ha
# From the text: as §1, §5, §6
# [14] = system: Digitaria sanguinalis (large crabgrass); assay: Greenhouse postemergence herbicidal effect on DIGSA; conditions: Compound A 0 g/ha, Ethephon 140 g/ha
# From the text: as §1, §5, §6
# [15] = system: Sorghum vulgare (grain sorghum); conditions: Compound A 0 g/ha, Ethephon 140 g/ha
# From the text: as §1, §2, §3, §4
# Zea mays (maize) = conditions: Compound A 0 g/ha, Ethephon 140 g/ha
# From the text: as §1, §2, §3, §4
# rice (ORYSA) = conditions: Compound A 0 g/ha, Ethephon 140 g/ha
# From the text: as §1, §5, §6
# [16] = system: Abutilon theophrasti (velvetleaf); assay: Greenhouse postemergence herbicidal effect on ABUTH
# From the text: as §1, §2, §3, §4
# [17] = system: Cyperus esculentus (yellow nutsedge); assay: Greenhouse postemergence herbicidal effect on CYPES; conditions: Compound A 0 g/ha, Ethephon 140 g/ha
# From the text: as §1, §5, §6
# [18] = Compound A 0 g/ha, Ethephon 140 g/ha
smiles,measurement,setting,value
"C[N+](C)(C)CCCl.[Cl-] [Chlormequat, Chlormequat chloride, reference compound]",% visual injury Obs,[1]; PGR 560 g ai/ha alone,0% and 5%
same,% visual injury Obs,[2]; PGR 560 g ai/ha alone,0% and 3%
same,% visual injury Obs,[3]; PGR 560 g ai/ha alone,0%
same,% visual injury Obs,[4]; PGR 560 g ai/ha alone,0%
same,% visual injury Obs,[5]; PGR 560 g ai/ha alone,0%
same,% visual injury Obs,Glycine max (soybean); PGR 560 g ai/ha alone,10%
same,% visual injury Obs,Kochia scoparia (kochia); PGR 560 g ai/ha alone,0%
same,% visual injury Obs,[6]; PGR 560 g ai/ha alone,0%
same,% visual injury Obs,[7]; PGR 560 g ai/ha alone,0%
same,% visual injury Obs,[8]; PGR 560 g ai/ha alone,0%
same,% visual injury Obs,[9]; PGR 560 g ai/ha alone,0%
same,% visual injury Obs,[10]; PGR 560 g ai/ha alone,0%
"O=P(O)(O)CCCl [Ethephon, reference compound]",Herbicidal Effects (% visual injury) POLCO Obs,[1]; [18],0%
same,Herbicidal Effects (% visual injury) EPHHL Obs,[11]; [18],0%
same,Herbicidal Effects (% visual injury) VIOTR Obs,[2]; [18],0%
same,Herbicidal Effects (% visual injury) ECHCG Obs,[12],0%
same,Herbicidal Effects (% visual injury) CIRAR Obs,[3]; [18],0%
same,Herbicidal Effects (% visual injury) RUMOB Obs,[13],0%
same,Herbicidal Effects (% visual injury) HELAN Obs,[4]; [18],0%
same,Herbicidal Effects (% visual injury) DIGSA Obs,[14],0%
same,Herbicidal Effects (% visual injury) SORVU Obs,[15],0%
same,Herbicidal Effects (% visual injury) ZEAMX Obs,Zea mays (maize),0%
same,Herbicidal Effects (% visual injury) ORYSA Obs,rice (ORYSA),0%
same,Herbicidal Effects (% visual injury) ABUTH Obs,[16]; [18],0%
same,Herbicidal Effects (% visual injury) CYPES Obs,[17],0%
same,Herbicidal Effects (% visual injury) KCHSC Obs,Kochia scoparia (kochia); [18],0%
same,Herbicidal Effects (% visual injury) AMARE Obs,[6]; [18],0%
same,Herbicidal Effects (% visual injury) BRSNN Obs,[7]; [18],0%
same,Herbicidal Effects (% visual injury) SETFA Obs,[8]; [18],0%
same,Herbicidal Effects (% visual injury) CHEAL Obs,[9]; [18],0%
same,Herbicidal Effects (% visual injury) STEME Obs,[10]; [18],0%
"O=C(O)Cc1c[nH]c2ccccc12 [IAA, indol-3-ylacetic acid, reference compound]",% visual injury Obs,[1]; PGR 140 g ai/ha alone,0%
same,% visual injury Obs,[2]; PGR 140 g ai/ha alone,0%
same,% visual injury Obs,[3]; PGR 140 g ai/ha alone,0%
same,% visual injury Obs,[4]; PGR 140 g ai/ha alone,0%
same,% visual injury Obs,[5]; PGR 140 g ai/ha alone,0%
same,% visual injury Obs,Glycine max (soybean); PGR 140 g ai/ha alone,0%
same,% visual injury Obs,[16]; PGR 140 g ai/ha alone,0%
same,% visual injury Obs,Kochia scoparia (kochia); PGR 140 g ai/ha alone,0%
same,% visual injury Obs,[6]; PGR 140 g ai/ha alone,0%
same,% visual injury Obs,[7]; PGR 140 g ai/ha alone,0%
same,% visual injury Obs,[8]; PGR 140 g ai/ha alone,0%
same,% visual injury Obs,[10]; PGR 140 g ai/ha alone,5%
"O=C(O)CCCc1c[nH]c2ccccc12 [IBA, indol-3-butyric acid, reference compound]",% visual injury Obs,[1]; PGR 140 g ai/ha alone,0%
same,% visual injury Obs,[2]; PGR 140 g ai/ha alone,3%
same,% visual injury Obs,[3]; PGR 140 g ai/ha alone,0%
same,% visual injury Obs,[4]; PGR 140 g ai/ha alone,0%
same,% visual injury Obs,[5]; PGR 140 g ai/ha alone,0%
same,% visual injury Obs,Glycine max (soybean); PGR 140 g ai/ha alone,0%
same,% visual injury Obs,[16]; PGR 140 g ai/ha alone,0%
same,% visual injury Obs,Kochia scoparia (kochia); PGR 140 g ai/ha alone,0%
same,% visual injury Obs,[6]; PGR 140 g ai/ha alone,0%
same,% visual injury Obs,[7]; PGR 140 g ai/ha alone,0%
same,% visual injury Obs,[8]; PGR 140 g ai/ha alone,5%
same,% visual injury Obs,[10]; PGR 140 g ai/ha alone,8%
"C#CCOC(=O)c1nc(-c2ccc3cc[nH]c3c2F)c(F)c(N)c1Cl [Compound B, propargyl 4-amino-3-chloro-5-fluoro-6-(7-fluoro-1H-indol-6-yl)pyridine-2-carboxylate]",% visual injury Obs,[1]; herbicide 7.5 g ae/ha alone,73%
same,% visual injury Obs,[1]; herbicide 10 g ae/ha alone,80%
same,% visual injury Obs,[11]; herbicide 7.5 g ae/ha alone,83%
same,% visual injury Obs,[11]; herbicide 10 g ae/ha alone,99%
same,% visual injury Obs,[2]; herbicide 7.5 g ae/ha alone,10%
same,% visual injury Obs,[2]; herbicide 10 g ae/ha alone,40%
same,% visual injury Obs,[3]; herbicide 7.5 g ae/ha alone,45%
same,% visual injury Obs,[3]; herbicide 10 g ae/ha alone,45%
same,% visual injury Obs,[4]; herbicide 7.5 g ae/ha alone,85%
same,% visual injury Obs,[4]; herbicide 10 g ae/ha alone,100%
same,% visual injury Obs,[16]; herbicide 7.5 g ae/ha alone,68%
same,% visual injury Obs,[16]; herbicide 10 g ae/ha alone,68%
same,% visual injury Obs,Kochia scoparia (kochia); herbicide 7.5 g ae/ha alone,68%
same,% visual injury Obs,Kochia scoparia (kochia); herbicide 10 g ae/ha alone,80%
same,% visual injury Obs,[7]; herbicide 7.5 g ae/ha alone,68%
same,% visual injury Obs,[7]; herbicide 10 g ae/ha alone,85%
same,% visual injury Obs,[8]; herbicide 7.5 g ae/ha alone,70%
same,% visual injury Obs,[8]; herbicide 10 g ae/ha alone,55%
same,% visual injury Obs,[9]; herbicide 7.5 g ae/ha alone,85%
same,% visual injury Obs,[9]; herbicide 10 g ae/ha alone,90%
same,% visual injury Obs,[10]; herbicide 7.5 g ae/ha alone,10%
same,% visual injury Obs,[10]; herbicide 10 g ae/ha alone,93%
